This note sets out measurements from patent US9765075B2, “Substituted bridged urea analogs as sirtuin modulators” (GLAXOSMITHKLINE LLC, priority 2013, dated 2017).

This experiment concerns the target T1, SIRT1 (Homo sapiens, UniProt Q96EB6).
T1 sequence (Q96EB6 1-747): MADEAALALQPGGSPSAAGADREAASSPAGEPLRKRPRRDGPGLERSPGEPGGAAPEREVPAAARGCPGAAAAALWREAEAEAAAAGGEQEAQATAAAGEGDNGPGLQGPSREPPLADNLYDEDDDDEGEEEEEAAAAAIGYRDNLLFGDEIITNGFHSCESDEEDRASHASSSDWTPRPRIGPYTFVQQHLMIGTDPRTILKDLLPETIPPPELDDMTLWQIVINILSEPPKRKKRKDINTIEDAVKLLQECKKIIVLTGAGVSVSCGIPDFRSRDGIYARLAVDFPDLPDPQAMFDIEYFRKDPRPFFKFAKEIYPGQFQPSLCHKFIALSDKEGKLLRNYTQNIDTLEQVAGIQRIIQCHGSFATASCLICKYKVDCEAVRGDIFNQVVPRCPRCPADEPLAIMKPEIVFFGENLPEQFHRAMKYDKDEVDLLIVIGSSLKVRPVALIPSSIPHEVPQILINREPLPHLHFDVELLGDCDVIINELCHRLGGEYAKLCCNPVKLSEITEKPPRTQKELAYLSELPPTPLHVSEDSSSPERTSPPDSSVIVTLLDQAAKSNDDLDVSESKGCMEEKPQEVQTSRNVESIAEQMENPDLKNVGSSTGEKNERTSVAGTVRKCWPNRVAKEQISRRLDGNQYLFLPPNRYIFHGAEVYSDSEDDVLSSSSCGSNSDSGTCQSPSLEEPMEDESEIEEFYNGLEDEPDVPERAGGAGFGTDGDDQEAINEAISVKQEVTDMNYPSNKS
The experiment in a line: Trp mass spectrometry assay (SIRT1 activation). The format is biochemical. The following applies: Trp peptide substrate; for Tryp AVG EC1.5 (μM): concentration of test compound that results in 150% activation of SIRT1; for Emax: percent maximum fold activation of SIRT1, read-out: Tryp % Fold Act. A digest of the protocol:
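N-His-tagged SIRT1 (10 nM), expressed in E. coli, was incubated with 0.5 μM Ac-RHKK(Ac)W-NH2 peptide and 120 μM NAD+ for 25 min at 25 °C in HEPES pH 7.5 with […]. The reaction was stopped with formic acid and O-acetyl-ADP-ribose or deacetylated peptide was quantified by mass spectrometry. Results are given as EC1.5 and percent maximal activation relative to DMSO control.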

Structures are written as SMILES.

In the case of `Cc1ccc(-c2ccc3c(n2)N(C(=O)Nc2ccncn2)[C@H]2CCCN3C2)cn1` [Example 479], the “Tryp AVG EC1.5 (μM)” value is “B (EC1.5 1-25 μM)” and the Emax is at least 150%.
In the case of `Cc1cc(-c2ccc3c(n2)N(C(=O)Nc2cccc(-c4cnco4)c2)[C@H]2CCN3C2)ccn1` [Example 480], the “Tryp AVG EC1.5 (μM)” value is “A (EC1.5<1 μM)” and the Emax was at least 150%.
The corresponding values for `Cc1cc(-c2ccc3c(n2)N(C(=O)Nc2nc(C)c(C)s2)[C@H]2CCN3C2)ccn1` [Example 481] are “A (EC1.5<1 μM)” and at least 150%.
On the same counts, the results for `Cc1cc(-c2ccc3c(n2)N(C(=O)Nc2cnn(C)c2)[C@H]2CCN3C2)ccn1` [Example 482] are “B (EC1.5 1-25 μM)” and at least 150%.
Take `Cc1cc(-c2ccc3c(n2)N(C(=O)Nc2ccc4cn(C)cc4c2)[C@H]2CCN3C2)ccn1` [Example 483]: the “Tryp AVG EC1.5 (μM)” value was “A (EC1.5<1 μM)” and the Emax was at least 150%.
With `CN1CCCN(c2ccc3c(n2)N(C(=O)Nc2ccncn2)[C@H]2CCCN3C2)CC1` [Example 484], the “Tryp AVG EC1.5 (μM)” value is on record as “C (EC1.5>25 μM)” and the Emax was under 150%.
The corresponding values for `O=C(Nc1cccnc1)N1c2nc(-c3cccc(C(F)(F)F)c3)ccc2N2CCC1CC2` [Example 485] are “A (EC1.5<1 μM)” and at least 150%.
On the same counts, the results for `Cc1nn(C)c(C)c1-c1ccc2c(n1)N(C(=O)Nc1cccnc1)[C@H]1CCN2C1` [Example 486] are “C (EC1.5>25 μM)” and at least 150%.
Regarding `CCCn1cc(-c2ccc3c(n2)N(C(=O)Nc2cccnc2)[C@H]2CCN3C2)cn1` [Example 487], the “Tryp AVG EC1.5 (μM)” value is reported as “B (EC1.5 1-25 μM)” and the Emax is at least 150%.
With `Cc1nn(C)cc1-c1ccc2c(n1)N(C(=O)Nc1cccnc1)[C@H]1CCN2C1` [Example 488], the “Tryp AVG EC1.5 (μM)” value is on record as “B (EC1.5 1-25 μM)” and the Emax was at least 150%.
The corresponding values for `Cc1c(-c2ccc3c(n2)N(C(=O)Nc2cccnc2)[C@H]2CCN3C2)cnn1C` [Example 489] are “B (EC1.5 1-25 μM)” and at least 150%.
Take `Cc1[nH]ncc1-c1ccc2c(n1)N(C(=O)Nc1cccnc1)[C@H]1CCN2C1` [Example 490]: the “Tryp AVG EC1.5 (μM)” value is “B (EC1.5 1-25 μM)” and the Emax was at least 150%.
Regarding `O=C(Nc1ccncn1)N1c2nc(N3CCCN(CC(F)(F)F)CC3)ccc2N2CCC[C@H]1C2` [Example 491], the “Tryp AVG EC1.5 (μM)” value was “A (EC1.5<1 μM)” and the Emax was at least 150%.
`O=C(Nc1cncc(F)c1)N1c2nc(-c3cccc(C(F)(F)F)c3)ccc2N2CCC1CC2` [Example 492]: the “Tryp AVG EC1.5 (μM)” value is “A (EC1.5<1 μM)” and the Emax was at least 150%.
On the same counts, the results for `O=C(Nc1cccnc1)N1c2nc(-c3cc[nH]n3)ccc2N2CC[C@H]1C2` [Example 493] are “B (EC1.5 1-25 μM)” and at least 150%.
The corresponding values for `CC(C)n1cc(-c2ccc3c(n2)N(C(=O)Nc2cccnc2)[C@H]2CCN3C2)cn1` [Example 494] are “B (EC1.5 1-25 μM)” and at least 150%.
Take `Cc1nc(C)c(-c2ccc3c(n2)N(C(=O)Nc2cccnc2)[C@H]2CCN3C2)s1` [Example 495]: the “Tryp AVG EC1.5 (μM)” value was “B (EC1.5 1-25 μM)” and the Emax was at least 150%.
`O=C(Nc1cccnc1)N1c2nc(-c3cccc(Cl)c3)ccc2N2CCC1CC2` [Example 496]: the “Tryp AVG EC1.5 (μM)” value is reported as “A (EC1.5<1 μM)” and the Emax was at least 150%.
For `O=C(Nc1cccc(-c2cnco2)c1)N1c2nc(-c3cccc(Cl)c3)ccc2N2CCC1CC2` [Example 497], the “Tryp AVG EC1.5 (μM)” value was “A (EC1.5<1 μM)” and the Emax is at least 150%.
The corresponding values for `Cc1cc(-c2ccc3c(n2)N(C(=O)Nc2cccnc2)[C@H]2CCN3C2)ccn1` [Example 498] are “A (EC1.5<1 μM)” and at least 150%.
Take `COc1cncc(NC(=O)N2c3nc(-c4ccnc(C)c4)ccc3N3CC[C@H]2C3)n1` [Example 499]: the “Tryp AVG EC1.5 (μM)” value is recorded as “A (EC1.5<1 μM)” and the Emax is at least 150%.
For `COc1cnc(NC(=O)N2c3nc(-c4ccnc(C)c4)ccc3N3CC[C@H]2C3)cn1` [Example 500], the “Tryp AVG EC1.5 (μM)” value was “A (EC1.5<1 μM)” and the Emax is at least 150%.
The corresponding values for `COc1nccnc1NC(=O)N1c2nc(-c3ccnc(C)c3)ccc2N2CC[C@H]1C2` [Example 501] are “B (EC1.5 1-25 μM)” and at least 150%.
With `Cc1cc(-c2ccc3c(n2)N(C(=O)Nc2ccc4c(cnn4C)c2)[C@H]2CCN3C2)ccn1` [Example 502], the “Tryp AVG EC1.5 (μM)” value is “A (EC1.5<1 μM)” and the Emax is at least 150%.
The corresponding values for `Cc1cc(-c2ccc3c(n2)N(C(=O)Nc2cncc(C)n2)[C@H]2CCN3C2)ccn1` [Example 503] are “A (EC1.5<1 μM)” and at least 150%.
On the same counts, the results for `Cc1cncc(-c2ccc3c(n2)N(C(=O)Nc2ccccn2)[C@H]2CCCN3C2)c1` [Example 504] are “A (EC1.5<1 μM)” and at least 150%.
Regarding `Cc1ccncc1-c1ccc2c(n1)N(C(=O)Nc1ccccn1)[C@H]1CCCN2C1` [Example 505], the “Tryp AVG EC1.5 (μM)” value is “C (EC1.5>25 μM)” and the Emax was under 150%.
Consider `Cc1ccc(-c2ccc3c(n2)N(C(=O)Nc2nc(C)c(C)s2)[C@H]2CCCN3C2)cn1` [Example 506], for which the “Tryp AVG EC1.5 (μM)” value is listed as “A (EC1.5<1 μM)” and the Emax was at least 150%.
The corresponding values for `Cc1cncc(-c2ccc3c(n2)N(C(=O)Nc2nc(C)c(C)s2)[C@H]2CCCN3C2)c1` [Example 507] are “A (EC1.5<1 μM)” and at least 150%.
The corresponding values for `Cc1ccncc1-c1ccc2c(n1)N(C(=O)Nc1nc(C)c(C)s1)[C@H]1CCCN2C1` [Example 508] are “C (EC1.5>25 μM)” and at least 150%.
On to `Cc1cncc(-c2ccc3c(n2)N(C(=O)Nc2cncc(F)c2)[C@H]2CCCN3C2)c1` [Example 509], for which the “Tryp AVG EC1.5 (μM)” value was “A (EC1.5<1 μM)” and the Emax was at least 150%.
On to `Cc1ccncc1-c1ccc2c(n1)N(C(=O)Nc1cncc(F)c1)[C@H]1CCCN2C1` [Example 510], for which the “Tryp AVG EC1.5 (μM)” value is “B (EC1.5 1-25 μM)” and the Emax was at least 150%.
Regarding `COc1cc(NC(=O)N2c3nc(-c4cnccc4C)ccc3N3CCC[C@H]2C3)ncn1` [Example 511], the “Tryp AVG EC1.5 (μM)” value was “C (EC1.5>25 μM)” and the Emax was under 150%.
On the same counts, the results for `Cc1cncc(-c2ccc3c(n2)N(C(=O)Nc2cnccn2)[C@H]2CCCN3C2)c1` [Example 512] are “B (EC1.5 1-25 μM)” and at least 150%.
On the same counts, the results for `Cc1ccncc1-c1ccc2c(n1)N(C(=O)Nc1cnccn1)[C@H]1CCCN2C1` [Example 513] are “C (EC1.5>25 μM)” and at least 150%.
Regarding `Cc1ccc(-c2ccc3c(n2)N(C(=O)Nc2cccnc2)[C@H]2CCCN3C2)cn1` [Example 514], the “Tryp AVG EC1.5 (μM)” value was “B (EC1.5 1-25 μM)” and the Emax was at least 150%.
For `Cc1cncc(-c2ccc3c(n2)N(C(=O)Nc2cccnc2)[C@H]2CCCN3C2)c1` [Example 515], the “Tryp AVG EC1.5 (μM)” value was “A (EC1.5<1 μM)” and the Emax was at least 150%.
The corresponding values for `Cc1ccncc1-c1ccc2c(n1)N(C(=O)Nc1cccnc1)[C@H]1CCCN2C1` [Example 516] are “B (EC1.5 1-25 μM)” and at least 150%.
As for `Cc1cncc(-c2ccc3c(n2)N(C(=O)Nc2ccncn2)[C@H]2CCCN3C2)c1` [Example 517], the “Tryp AVG EC1.5 (μM)” value was “A (EC1.5<1 μM)” and the Emax is at least 150%.
For the molecule `Cc1ccncc1-c1ccc2c(n1)N(C(=O)Nc1ccncn1)[C@H]1CCCN2C1` [Example 518], the “Tryp AVG EC1.5 (μM)” value is on record as “C (EC1.5>25 μM)” and the Emax is under 150%.
For the molecule `Cc1cncc(-c2ccc3c(n2)N(C(=O)Nc2cccnn2)[C@H]2CCCN3C2)c1` [Example 519], the “Tryp AVG EC1.5 (μM)” value is listed as “A (EC1.5<1 μM)” and the Emax is at least 150%.
`Cc1ccncc1-c1ccc2c(n1)N(C(=O)Nc1cccnn1)[C@H]1CCCN2C1` [Example 520]: the “Tryp AVG EC1.5 (μM)” value was “C (EC1.5>25 μM)” and the Emax was at least 150%.
As for `O=C(Nc1cncc(F)c1)N1c2nc(-c3cccc(Cl)c3)ccc2N2CCC1CC2` [Example 521], the “Tryp AVG EC1.5 (μM)” value was “B (EC1.5 1-25 μM)” and the Emax is at least 150%.
The corresponding values for `COc1cc(NC(=O)N2c3nc(-c4cccc(Cl)c4)ccc3N3CCC2CC3)ncn1` [Example 522] are “B (EC1.5 1-25 μM)” and at least 150%.
